Results from PMC9797307, “Measurement of Pharmacokinetics and Tissue Distribution of Four Compounds from Nauclea officinalis in Rat Plasma and Tissues through HPLC-MS/MS” (Journal of Analytical Methods in Chemistry, 2022).

Assay: Stability of QC samples in rat plasma and tissue homogenates under different storage conditions
Format: in vitro ADME
Conditions: in % (unit assumed)

- Accuracy, Ambient temperature for 4 h (Brain, 5 ng/mL): 106.35 ± 11.82
- Accuracy, Autosampler at 4°C for 8 h (Brain, 5 ng/mL): 109.83 ± 6.05
- Accuracy, Three freeze-thraw cycles (Brain, 5 ng/mL): 98.92 ± 10.65
- Accuracy, −80°C for 30 days (Brain, 5 ng/mL): 104.10 ± 10.88
- Accuracy, Ambient temperature for 4 h (Brain, 8 ng/mL): 88.87 ± 10.43
- Accuracy, Autosampler at 4°C for 8 h (Brain, 8 ng/mL): 90.65 ± 6.37
- Accuracy, Three freeze-thraw cycles (Brain, 8 ng/mL): 89.95 ± 9.23
- Accuracy, −80°C for 30 days (Brain, 8 ng/mL): 88.82 ± 10.57
- Accuracy, Ambient temperature for 4 h (Brain, 140 ng/mL): 88.33 ± 6.74
- Accuracy, Autosampler at 4°C for 8 h (Brain, 140 ng/mL): 87.92 ± 8.15
- Accuracy, Three freeze-thraw cycles (Brain, 140 ng/mL): 87.20 ± 4.98
- Accuracy, −80°C for 30 days (Brain, 140 ng/mL): 87.93 ± 5.81
- Accuracy, Ambient temperature for 4 h (Brain, 2400 ng/mL): 99.43 ± 6.38
- Accuracy, Autosampler at 4°C for 8 h (Brain, 2400 ng/mL): 112.67 ± 6.62
- Accuracy, Three freeze-thraw cycles (Brain, 2400 ng/mL): 109.67 ± 6.44
- Accuracy, −80°C for 30 days (Brain, 2400 ng/mL): 109.00 ± 5.22
- Accuracy, Ambient temperature for 4 h (Heart, 5 ng/mL): 111.97 ± 11.63
- Accuracy, Autosampler at 4°C for 8 h (Heart, 5 ng/mL): 100.78 ± 9.63
- Accuracy, Three freeze-thraw cycles (Heart, 5 ng/mL): 107.98 ± 9.45
- Accuracy, −80°C for 30 days (Heart, 5 ng/mL): 107.42 ± 10.24
- Accuracy, Ambient temperature for 4 h (Heart, 8 ng/mL): 110.50 ± 4.42
- Accuracy, Autosampler at 4°C for 8 h (Heart, 8 ng/mL): 107.25 ± 9.25
- Accuracy, Three freeze-thraw cycles (Heart, 8 ng/mL): 109.08 ± 8.25
- Accuracy, −80°C for 30 days (Heart, 8 ng/mL): 110.87 ± 9.04
- Accuracy, Ambient temperature for 4 h (Heart, 140 ng/mL): 102.78 ± 6.89
- Accuracy, Autosampler at 4°C for 8 h (Heart, 140 ng/mL): 104.88 ± 3.80
- Accuracy, Three freeze-thraw cycles (Heart, 140 ng/mL): 100.40 ± 9.13
- Accuracy, −80°C for 30 days (Heart, 140 ng/mL): 98.28 ± 5.70
- Accuracy, Ambient temperature for 4 h (Heart, 2400 ng/mL): 112.33 ± 10.41
- Accuracy, Autosampler at 4°C for 8 h (Heart, 2400 ng/mL): 111.50 ± 5.68
- Accuracy, Three freeze-thraw cycles (Heart, 2400 ng/mL): 112.33 ± 5.72
- Accuracy, −80°C for 30 days (Heart, 2400 ng/mL): 110.50 ± 4.81
- Accuracy, Ambient temperature for 4 h (Kidney, 5 ng/mL): 109.33 ± 7.55
- Accuracy, Autosampler at 4°C for 8 h (Kidney, 5 ng/mL): 106.08 ± 8.96
- Accuracy, Three freeze-thraw cycles (Kidney, 5 ng/mL): 98.92 ± 9.91
- Accuracy, −80°C for 30 days (Kidney, 5 ng/mL): 97.18 ± 10.46
- Accuracy, Ambient temperature for 4 h (Kidney, 8 ng/mL): 99.10 ± 4.24
- Accuracy, Autosampler at 4°C for 8 h (Kidney, 8 ng/mL): 97.38 ± 7.31
- Accuracy, Three freeze-thraw cycles (Kidney, 8 ng/mL): 91.10 ± 9.20
- Accuracy, −80°C for 30 days (Kidney, 8 ng/mL): 94.77 ± 7.62
- Accuracy, Ambient temperature for 4 h (Kidney, 140 ng/mL): 96.08 ± 7.36
- Accuracy, Autosampler at 4°C for 8 h (Kidney, 140 ng/mL): 95.43 ± 7.99
- Accuracy, Three freeze-thraw cycles (Kidney, 140 ng/mL): 101.10 ± 4.98
- Accuracy, −80°C for 30 days (Kidney, 140 ng/mL): 100.25 ± 8.25
- Accuracy, Ambient temperature for 4 h (Kidney, 2400 ng/mL): 108.00 ± 5.62
- Accuracy, Autosampler at 4°C for 8 h (Kidney, 2400 ng/mL): 103.87 ± 4.68
- Accuracy, Three freeze-thraw cycles (Kidney, 2400 ng/mL): 104.57 ± 6.09
- Accuracy, −80°C for 30 days (Kidney, 2400 ng/mL): 102.30 ± 5.90
- Accuracy, Ambient temperature for 4 h (Liver, 5 ng/mL): 101.78 ± 11.83
- Accuracy, Autosampler at 4°C for 8 h (Liver, 5 ng/mL): 107.70 ± 5.36
- Accuracy, Three freeze-thraw cycles (Liver, 5 ng/mL): 98.32 ± 6.66
- Accuracy, −80°C for 30 days (Liver, 5 ng/mL): 98.38 ± 12.07
- Accuracy, Ambient temperature for 4 h (Liver, 8 ng/mL): 87.60 ± 5.90
- Accuracy, Autosampler at 4°C for 8 h (Liver, 8 ng/mL): 86.47 ± 4.52
- Accuracy, Three freeze-thraw cycles (Liver, 8 ng/mL): 90.60 ± 4.91
- Accuracy, −80°C for 30 days (Liver, 8 ng/mL): 86.00 ± 8.60
- Accuracy, Ambient temperature for 4 h (Liver, 140 ng/mL): 88.57 ± 2.44
- Accuracy, Autosampler at 4°C for 8 h (Liver, 140 ng/mL): 95.00 ± 4.15
- Accuracy, Three freeze-thraw cycles (Liver, 140 ng/mL): 96.28 ± 4.36
- Accuracy, −80°C for 30 days (Liver, 140 ng/mL): 97.32 ± 7.17
- Accuracy, Ambient temperature for 4 h (Liver, 2400 ng/mL): 98.93 ± 3.81
- Accuracy, Autosampler at 4°C for 8 h (Liver, 2400 ng/mL): 91.37 ± 2.51
- Accuracy, Three freeze-thraw cycles (Liver, 2400 ng/mL): 89.35 ± 3.70
- Accuracy, −80°C for 30 days (Liver, 2400 ng/mL): 89.97 ± 7.32
- Accuracy, Ambient temperature for 4 h (Lung, 5 ng/mL): 109.50 ± 11.47
- Accuracy, Autosampler at 4°C for 8 h (Lung, 5 ng/mL): 100.40 ± 10.26
- Accuracy, Three freeze-thraw cycles (Lung, 5 ng/mL): 101.05 ± 5.33
- Accuracy, −80°C for 30 days (Lung, 5 ng/mL): 95.98 ± 10.47
- Accuracy, Ambient temperature for 4 h (Lung, 8 ng/mL): 94.73 ± 8.92
- Accuracy, Autosampler at 4°C for 8 h (Lung, 8 ng/mL): 91.40 ± 9.71
- Accuracy, Three freeze-thraw cycles (Lung, 8 ng/mL): 101.90 ± 10.45
- Accuracy, −80°C for 30 days (Lung, 8 ng/mL): 99.03 ± 10.49
Compound: C/C=C1/COC(=O)[C@H]2C(=O)N3CCc4c([nH]c5ccccc45)[C@@H]3C[C@@H]12 [Naucleactonin C]
